Reference: patent US8729059B2, “Paramyxovirus family inhibitors and methods of use thereof” (priority 2007, dated 2014)

Columns and labels:
[1] = tested on: recombinant MV-Edm; assay: virus yield reduction assay, MV-Edm; assay type: cell-based, measles virus; settings: 36 hours post-infection
[2] = tested on: cells
[3] = tested on: Vero cells; assay: Trypan blue exclusion assay; settings: 30 hours
[4] = tested on: human parainfluenzavirus type 2 (hPIV2); assay type: cell-based; settings: read-out: IC50 against hPIV2
[5] = tested on: MV; assay: time of compound addition assay; assay type: cell-based, measles virus; settings: 15 μM added 12 hours post-infection, harvest 20 hours post-infection
Experimental: Cells (3×10^5/well in a 12-well plate format) were infected with MV at an MOI=[…] and compounds compound 16677 (final concentration 15 μM) or AS-48 (final concentration 75 μM) added at the indicated time points. Control cells were infected in the presence of equal amounts of DMSO. Twenty hours post-infection, when virus-induced cytopathicity exceeded 90%, cell-associated viral particles were harvested and subjected to TCID50 titration.

[6] = tested on: MV; assay: virus entry assay (pH 3.0 wash); assay type: cell-based, measles virus; settings: 10 μM, compared to DMSO-treated cells
Experimental: For entry experiments, viral particles (MOI=0.5) were absorbed to 4×10^5 target cells in a 6-well plate format at 4° C. in the presence of 10 μM compound 16677 or equal amounts of DMSO for one hour. Cells were then shifted to 37° C. for 30 minutes, followed by inactivation of adsorbed, extracellular virions by a 2-minute acid treatment (40 mM sodium citrate, 10 mM KCl, 135 mM NaCl, pH 3.0) at 25° C. as previously described (37,39,49). Subsequent incubation for 30 hours at 37° C. in the presence or absence of 10 μM compound 16677 as specified was followed by determination of cell-associated virus titers by TCID50 titration.

[7] = target: MV polymerase complex (Measles virus, UniProt P12576); assay type: cell-based
MV polymerase complex, sequence (P03422 whole entry): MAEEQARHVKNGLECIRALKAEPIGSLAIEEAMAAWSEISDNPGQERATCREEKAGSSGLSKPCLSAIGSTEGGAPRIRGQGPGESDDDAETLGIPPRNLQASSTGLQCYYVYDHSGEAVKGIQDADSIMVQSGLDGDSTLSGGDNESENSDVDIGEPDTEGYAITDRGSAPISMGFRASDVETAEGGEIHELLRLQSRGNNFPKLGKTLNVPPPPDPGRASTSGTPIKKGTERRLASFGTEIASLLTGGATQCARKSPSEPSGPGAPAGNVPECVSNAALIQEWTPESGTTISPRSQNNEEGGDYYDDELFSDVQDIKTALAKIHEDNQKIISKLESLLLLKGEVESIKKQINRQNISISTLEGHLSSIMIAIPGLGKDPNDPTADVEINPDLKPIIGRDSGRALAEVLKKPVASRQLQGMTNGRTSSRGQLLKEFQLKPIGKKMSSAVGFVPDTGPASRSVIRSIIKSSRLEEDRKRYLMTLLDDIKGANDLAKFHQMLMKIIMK
MV polymerase complex, sequence (P12576 whole entry): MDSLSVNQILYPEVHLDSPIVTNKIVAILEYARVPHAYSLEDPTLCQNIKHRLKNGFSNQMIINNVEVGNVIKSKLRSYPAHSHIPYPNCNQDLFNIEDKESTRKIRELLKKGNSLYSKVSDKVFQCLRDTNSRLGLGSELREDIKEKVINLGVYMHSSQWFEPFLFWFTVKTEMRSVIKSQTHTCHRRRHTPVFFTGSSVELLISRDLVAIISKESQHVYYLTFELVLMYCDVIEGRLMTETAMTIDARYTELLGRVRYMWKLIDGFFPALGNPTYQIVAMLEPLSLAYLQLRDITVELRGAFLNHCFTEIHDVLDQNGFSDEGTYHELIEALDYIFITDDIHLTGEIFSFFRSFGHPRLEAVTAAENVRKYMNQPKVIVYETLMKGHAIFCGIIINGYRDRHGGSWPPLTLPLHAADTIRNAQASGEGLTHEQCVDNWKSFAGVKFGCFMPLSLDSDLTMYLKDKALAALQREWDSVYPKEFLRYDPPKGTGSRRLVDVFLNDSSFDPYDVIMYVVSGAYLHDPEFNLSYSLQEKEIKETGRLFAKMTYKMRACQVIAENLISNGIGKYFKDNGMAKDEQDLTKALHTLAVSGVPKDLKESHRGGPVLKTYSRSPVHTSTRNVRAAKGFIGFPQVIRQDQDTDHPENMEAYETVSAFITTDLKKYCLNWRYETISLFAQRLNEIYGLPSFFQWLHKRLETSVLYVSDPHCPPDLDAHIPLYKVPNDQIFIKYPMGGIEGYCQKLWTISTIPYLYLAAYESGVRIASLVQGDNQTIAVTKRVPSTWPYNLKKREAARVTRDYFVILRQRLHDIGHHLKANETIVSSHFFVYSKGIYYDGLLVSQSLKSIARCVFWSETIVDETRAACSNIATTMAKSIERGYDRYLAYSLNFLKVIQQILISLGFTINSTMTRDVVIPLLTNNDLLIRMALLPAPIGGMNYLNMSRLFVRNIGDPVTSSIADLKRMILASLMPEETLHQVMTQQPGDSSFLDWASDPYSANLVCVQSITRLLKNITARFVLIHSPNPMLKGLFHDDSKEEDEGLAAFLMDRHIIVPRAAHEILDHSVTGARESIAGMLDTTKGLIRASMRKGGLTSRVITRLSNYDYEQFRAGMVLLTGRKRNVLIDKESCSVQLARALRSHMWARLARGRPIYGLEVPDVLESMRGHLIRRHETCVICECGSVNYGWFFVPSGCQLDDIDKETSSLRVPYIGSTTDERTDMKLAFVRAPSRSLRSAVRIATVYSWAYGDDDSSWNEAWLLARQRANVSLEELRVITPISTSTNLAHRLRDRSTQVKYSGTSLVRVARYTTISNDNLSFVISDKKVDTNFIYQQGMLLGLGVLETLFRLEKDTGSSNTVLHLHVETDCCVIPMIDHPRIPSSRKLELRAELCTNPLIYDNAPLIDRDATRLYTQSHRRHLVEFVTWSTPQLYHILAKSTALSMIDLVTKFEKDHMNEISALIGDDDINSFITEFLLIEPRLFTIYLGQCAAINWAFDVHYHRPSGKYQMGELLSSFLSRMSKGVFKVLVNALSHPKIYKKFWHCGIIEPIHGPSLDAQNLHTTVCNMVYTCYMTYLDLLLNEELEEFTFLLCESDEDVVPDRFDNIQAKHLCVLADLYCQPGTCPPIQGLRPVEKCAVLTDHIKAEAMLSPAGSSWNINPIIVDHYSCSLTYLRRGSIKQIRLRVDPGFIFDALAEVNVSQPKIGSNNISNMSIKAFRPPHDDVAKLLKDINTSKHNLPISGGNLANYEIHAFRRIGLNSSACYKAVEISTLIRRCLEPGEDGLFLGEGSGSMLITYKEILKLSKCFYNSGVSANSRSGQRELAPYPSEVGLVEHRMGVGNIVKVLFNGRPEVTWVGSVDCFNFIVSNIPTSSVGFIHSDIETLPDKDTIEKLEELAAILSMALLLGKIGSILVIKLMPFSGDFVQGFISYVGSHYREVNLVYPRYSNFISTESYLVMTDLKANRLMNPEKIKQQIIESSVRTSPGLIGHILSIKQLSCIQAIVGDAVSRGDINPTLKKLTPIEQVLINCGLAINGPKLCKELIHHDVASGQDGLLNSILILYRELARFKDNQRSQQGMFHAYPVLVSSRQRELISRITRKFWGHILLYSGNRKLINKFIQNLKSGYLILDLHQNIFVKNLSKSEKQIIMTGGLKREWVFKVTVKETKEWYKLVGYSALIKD

[8] = tested on: MV-Anc; assay: compound stability under physiological conditions; assay type: physicochemical, measles virus; settings: 15 μM, 37° C., pre-incubation for 24 hours
Experimental: To assess compound stability under physiological conditions, inhibitor compound 16677 was dissolved in growth medium (15 μM final concentration) and incubated at 37° C. and physiological pH for different time intervals (24 hours longest). Control samples contained equal amounts of DMSO and were likewise incubated for 24 hours. Subsequent to pre-incubation, MV was added to the compound aliquots and the mixtures transferred to 4×10^5 target cells seeded in a 6-well plate format (resulting MOI=0.1 pfu/cell). Thirty-six hours post-infection, cell-associated viral particles were harvested and virus titers determined by TCID50 titration.

[9] = target: Nipah virus polymerase (Nipah virus, UniProt Q997F0); assay type: cell-based
Nipah virus polymerase, sequence (Q997F0 whole entry, looked up): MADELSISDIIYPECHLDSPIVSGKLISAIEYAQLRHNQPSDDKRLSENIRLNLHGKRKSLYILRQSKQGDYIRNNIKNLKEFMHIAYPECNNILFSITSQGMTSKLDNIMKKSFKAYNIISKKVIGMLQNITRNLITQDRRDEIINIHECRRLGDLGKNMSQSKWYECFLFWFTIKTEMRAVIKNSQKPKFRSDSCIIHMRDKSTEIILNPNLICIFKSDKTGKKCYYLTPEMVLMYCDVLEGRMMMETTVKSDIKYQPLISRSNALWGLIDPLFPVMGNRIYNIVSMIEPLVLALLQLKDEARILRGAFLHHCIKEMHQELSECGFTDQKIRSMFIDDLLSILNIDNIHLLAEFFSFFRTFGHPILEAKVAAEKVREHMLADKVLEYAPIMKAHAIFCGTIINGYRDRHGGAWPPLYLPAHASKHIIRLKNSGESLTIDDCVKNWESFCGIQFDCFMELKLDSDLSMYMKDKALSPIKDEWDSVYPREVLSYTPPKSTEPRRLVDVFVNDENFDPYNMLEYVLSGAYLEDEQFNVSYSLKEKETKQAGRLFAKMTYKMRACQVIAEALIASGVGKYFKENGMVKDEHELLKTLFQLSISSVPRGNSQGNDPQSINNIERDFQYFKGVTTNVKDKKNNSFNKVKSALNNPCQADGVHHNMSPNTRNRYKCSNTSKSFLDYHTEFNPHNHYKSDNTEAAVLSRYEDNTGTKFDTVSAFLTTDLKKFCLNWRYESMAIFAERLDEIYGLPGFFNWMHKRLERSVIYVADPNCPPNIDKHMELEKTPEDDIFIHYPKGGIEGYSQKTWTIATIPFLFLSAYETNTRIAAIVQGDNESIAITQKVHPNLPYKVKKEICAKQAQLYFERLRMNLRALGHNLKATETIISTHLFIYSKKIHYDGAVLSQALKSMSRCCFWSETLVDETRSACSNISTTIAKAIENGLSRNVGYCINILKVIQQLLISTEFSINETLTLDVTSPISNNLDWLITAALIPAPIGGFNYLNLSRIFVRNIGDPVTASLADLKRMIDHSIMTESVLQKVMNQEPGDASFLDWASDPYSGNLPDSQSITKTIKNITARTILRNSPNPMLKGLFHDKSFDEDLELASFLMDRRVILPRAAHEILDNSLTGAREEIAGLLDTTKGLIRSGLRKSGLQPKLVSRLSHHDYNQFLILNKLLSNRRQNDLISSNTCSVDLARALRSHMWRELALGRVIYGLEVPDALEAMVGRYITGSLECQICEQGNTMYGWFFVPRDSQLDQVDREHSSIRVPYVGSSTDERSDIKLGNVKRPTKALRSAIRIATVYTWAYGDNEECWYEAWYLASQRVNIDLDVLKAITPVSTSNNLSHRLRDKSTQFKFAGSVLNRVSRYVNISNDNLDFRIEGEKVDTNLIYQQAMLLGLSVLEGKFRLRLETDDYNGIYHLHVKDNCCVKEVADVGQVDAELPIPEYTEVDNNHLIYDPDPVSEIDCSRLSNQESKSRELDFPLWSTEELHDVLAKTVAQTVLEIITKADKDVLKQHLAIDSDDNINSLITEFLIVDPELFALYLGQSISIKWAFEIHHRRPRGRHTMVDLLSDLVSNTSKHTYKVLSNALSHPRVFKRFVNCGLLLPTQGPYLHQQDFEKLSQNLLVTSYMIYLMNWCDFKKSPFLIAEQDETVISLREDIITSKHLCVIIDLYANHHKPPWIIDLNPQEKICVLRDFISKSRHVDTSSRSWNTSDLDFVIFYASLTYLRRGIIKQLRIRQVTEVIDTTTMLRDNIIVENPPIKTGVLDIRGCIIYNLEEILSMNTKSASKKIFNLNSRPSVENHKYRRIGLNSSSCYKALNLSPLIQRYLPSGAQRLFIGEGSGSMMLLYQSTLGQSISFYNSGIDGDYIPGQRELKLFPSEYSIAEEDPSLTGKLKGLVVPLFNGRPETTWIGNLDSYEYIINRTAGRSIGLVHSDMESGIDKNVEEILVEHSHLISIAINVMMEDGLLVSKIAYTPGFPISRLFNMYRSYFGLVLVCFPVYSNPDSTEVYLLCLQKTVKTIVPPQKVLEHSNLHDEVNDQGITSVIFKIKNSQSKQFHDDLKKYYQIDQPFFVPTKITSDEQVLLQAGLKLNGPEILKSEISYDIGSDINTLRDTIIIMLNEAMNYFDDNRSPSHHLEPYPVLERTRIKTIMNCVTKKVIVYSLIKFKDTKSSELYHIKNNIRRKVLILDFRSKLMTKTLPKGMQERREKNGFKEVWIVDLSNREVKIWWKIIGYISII

[10] = tested on: MV-Anc; assay: compound specificity assay (BSA, higher virus inoculum); assay type: cell-based, measles virus
Experimental: Bovine serum albumin (BSA) was added to some samples at a final concentration of 10 mg/ml.

[11] = tested on: canine distemper virus (CDV); assay type: cell-based; settings: read-out: IC50 against CDV
[12] = target: T7 polymerase (Escherichia phage T7, UniProt P00573); assay: in vitro protein transcription/translation; assay type: biochemical; settings: 50 μM compound vs untreated
Experimental: Rabbit reticulocyte lysates were mixed with 0.5 μg plasmid DNA encoding MV F under the control of the T7 promoter (pT7-MV F), 20 μCi [^35S]-methionine, and compound 16677 (final concentration 50 μM) or equal volumes of DMSO. Samples were incubated at 30° C. for 90 min, mixed with urea buffer (200 mM Tris, pH 6.8; 8 M urea; 5% SDS; 0.1 mM EDTA; 0.03% bromphenolblue; 1.5% dithiothreitol), and fractionated on 12% polyacrylamide gels. Dried gels were exposed to Kodak XAR films.

[13] = tested on: MV; assay: dissociation assay (dialysis); assay type: cell-based, measles virus; settings: 15 μM, dialysis against PBS
Experimental: Viral particles (4×10^4 pfu, equaling an MOI=[…]) were mixed with compound 16677 (final concentration 15 μM) dissolved in phosphate buffered saline (PBS). After 10-minute incubation at 37° C. to allow compound binding, samples were either subjected to dialysis against PBS (molecular weight cut off=75 kDa, dilution factor 100,000×, 4° C., 10 hours) or incubated for 10 hours at 4° C. without dialysis. Control samples were treated with DMSO-only and subjected to dialysis. All samples were then transferred to 4×10^5 target cells seeded in a 6-well plate, cell-associated viral particles harvested 36 hours post-infection and viral titers determined by TCID50 titration.

[14] = tested on: panel of primary MV isolates; assay: virus yield dose-response, primary MV isolates; assay type: cell-based, measles virus
Experimental: For assessment of clinical MV isolates, compound was added in 3-fold dilutions (37.5 μM highest). Thirty-six hours post-infection, cell-associated viral particles were harvested and titered as described above.

Cc1ccc2[nH]c(=O)c(CNS(=O)(=O)c3ccccc3)c(-c3ccccc3)c2c1 [compound 68290]
IC50 [1]: 7.7 µM | CC50 [2]: > 150 µM | concentration giving 50% reduction of the number of live cells ([3]; trypan-blue exclusion): approximately 75 μM

Cc1ccc2nsnc2c1S(=O)(=O)Nc1ccc(Cl)cc1 [compound 99920]
IC50 [1]: 1.3 µM | CC50 [2]: 100 µM

O=C(NC(=O)N(c1ccc(Cl)cc1)S(=O)(=O)c1ccccc1)Nc1ccccc1Cl [compound 15960]
IC50 [1]: 3.4 µM | CC50 [2]: 120 µM

Cn1nc(C(F)(F)F)cc1C(=O)Nc1ccc(S(=O)(=O)N2CCCC2)cc1 [compound 16677, 1-methyl-3-(trifluoromethyl)-N-[4-(pyrrolidinylsulfonyl)-phenyl]-1H-pyrazole-5-carboxamide]
IC50 [4]: > 75 µM | IC50 [1]: ~0.24 µM | CC50 [2]: > 150 µM | reduction in virus yields [5]: approximately 99.9% | effect of pH 3.0 wash on virus yields after absorption in presence of compound [6]: only slightly affected | CAT expression in MV minireplicon assay [7]: strong dose-dependent inhibition of CAT expression | IC50 in minigenome assay relative to IC50 against MV isolates [7]: about 25 times | antiviral activity after pre-incubation in cell culture medium [8]: no loss in antiviral activity | number of live cells, of solvent-treated controls ([3]; compound concentration 500 μM): approximately 80% | effect on Nipah virus minireplicon [9]: no effect | change of IC50 with 10 mg/ml BSA or five-fold higher virus inoculum [10]: no significant differences were observed | IC50 [11]: 28 µM | F protein produced in cell-free transcription/translation [12]: Equal amounts of F protein were detected | inhibitory activity after dialysis prior to infection (reversibility) [13]: completely ablated by dialysis | inhibition of MV-Ibd (genotype B3, resistant to MV entry inhibitors) [14]: efficiently inhibited
